Assay results reported in ChEMBL document CHEMBL1151083, “Synthesis & characterization of N-amino-glyphosate as a potent analog inhibitor of E. coli EPSP synthase” (Bioorg Med Chem Lett, 1993).

Experiments:
[1] = target: T1, 3-phosphoshikimate 1-carboxyvinyltransferase (Escherichia coli K-12, UniProt P0A6D3); assay: Tested for the inhibition against Escherichia coli 5-enolpyruvyl-shikimate-3-phosphate synthase
T1 sequence (P0A6D3 whole entry): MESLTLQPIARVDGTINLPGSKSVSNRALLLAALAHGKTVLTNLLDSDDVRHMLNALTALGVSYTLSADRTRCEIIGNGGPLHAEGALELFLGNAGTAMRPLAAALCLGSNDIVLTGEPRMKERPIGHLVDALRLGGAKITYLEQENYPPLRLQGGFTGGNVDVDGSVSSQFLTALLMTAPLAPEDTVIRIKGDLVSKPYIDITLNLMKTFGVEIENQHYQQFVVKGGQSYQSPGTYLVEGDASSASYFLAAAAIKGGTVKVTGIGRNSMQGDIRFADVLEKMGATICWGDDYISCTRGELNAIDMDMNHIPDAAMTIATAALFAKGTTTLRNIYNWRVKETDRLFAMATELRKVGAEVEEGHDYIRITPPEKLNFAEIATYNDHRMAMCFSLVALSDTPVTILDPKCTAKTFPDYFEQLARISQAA

[2] = target: T1, 3-phosphoshikimate 1-carboxyvinyltransferase; assay: Tested for the inhibition against Escherichia coli 5-enolpyruvyl-shikimate-3-phosphate synthase versus phosphoenolpyruvate
[3] = target: T2, 3-phosphoshikimate 1-carboxyvinyltransferase (Escherichia coli K-12) (UniProt P0A6D3)
T2 sequence (whole entry): T1 sequence (P0A6D3 whole entry)
Description: Tested for the dissociation rate against Escherichia coli 5-enolpyruvyl-shikimate-3-phosphate synthase

[4] = target: T2, 3-phosphoshikimate 1-carboxyvinyltransferase (Escherichia coli K-12); remark: listed apart in the source
Description: Tested for the rate of association against Escherichia coli 5-enolpyruvyl-shikimate-3-phosphate synthase

[5] = target: T1, 3-phosphoshikimate 1-carboxyvinyltransferase; assay: Tested for the dissociation constant against Escherichia coli 5-enolpyruvyl-shikimate-3-phosphate synthase

Structure (SMILES) | IC50 [1] [µM] | Ki [2] [µM] | further results
O=C(O)CNC[PH](=O)O | 700 | – | –
CC(NCP(=O)(O)O)C(=O)O (stereo not given) | > 80 | – | –
NC(CC(=O)O)CP(=O)(O)O (stereo not given) | > 80 | – | –
CN(CC(=O)O)CP(=O)(O)O | 150 | 78 | –
O=C(O)CNCP(=O)(O)O | – | – | k off [3]: 0.12 s⁻¹; k on [4]: 780000 M⁻¹ s⁻¹
CC(NCC(=O)O)P(=O)(O)O (stereo not given) | > 80 | – | –
NN(CC(=O)O)CP(=O)(O)O | – | 0.61 | Kd [5]: 0.5 µM; k off [3]: 0.16 s⁻¹; k on [4]: 320000 M⁻¹ s⁻¹
O=C(O)CN(O)CP(=O)(O)O | – | 2.2 | –
COC(=O)CNCP(=O)(O)O | > 1 | – | –
O=NN(CC(=O)O)CP(=O)(O)O | – | 2.2 | –
